# Assay results published in US20100234395A1, “UREIDE DERIVATIVE AND PHARMACEUTICAL APPLICATION THEREOF” (TORAY INDUSTRIES, INC., priority 2006, published 2010).
# Read-outs that look alike come from different tables or passages of the source.
# Legend:
# [1] = molecular target: T1, COX-2 (Homo sapiens, UniProt P35354); experiment: Activity of inhibiting COX-2 in human blood (prostaglandin E2 after lipopolysaccharide); assay type: cell-based; settings: prostaglandin E2 production
# T1 construct: Human blood that had been sampled with the use of heparin (19 units/ml) was used; from tissue; host or cells: human whole blood (heparinised), aspirin-pretreated, stimulated with lipopolysaccharide
# T1 sequence (P35354 18-604): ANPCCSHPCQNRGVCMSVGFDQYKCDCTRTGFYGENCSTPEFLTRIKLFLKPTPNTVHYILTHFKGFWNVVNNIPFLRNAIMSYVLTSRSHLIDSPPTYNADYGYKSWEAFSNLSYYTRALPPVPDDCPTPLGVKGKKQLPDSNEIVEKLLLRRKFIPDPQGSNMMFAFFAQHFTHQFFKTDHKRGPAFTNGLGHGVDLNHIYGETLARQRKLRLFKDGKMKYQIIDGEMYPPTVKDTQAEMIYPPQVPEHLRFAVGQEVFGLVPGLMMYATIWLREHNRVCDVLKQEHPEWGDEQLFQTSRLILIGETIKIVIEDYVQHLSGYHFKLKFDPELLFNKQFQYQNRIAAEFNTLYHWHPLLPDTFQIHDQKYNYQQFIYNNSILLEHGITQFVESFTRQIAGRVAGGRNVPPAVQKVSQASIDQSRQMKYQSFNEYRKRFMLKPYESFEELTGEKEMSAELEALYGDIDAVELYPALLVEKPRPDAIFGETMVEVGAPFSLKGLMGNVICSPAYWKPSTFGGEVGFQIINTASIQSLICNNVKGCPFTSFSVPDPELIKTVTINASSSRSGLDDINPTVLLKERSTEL
# Experimental: Human blood that had been sampled with the use of heparin (19 units/ml) was used. Blood was fractionated to reaction tubes in amounts of 500 μl, aspirin (12 μg/ml) was added thereto, and the resultants were incubated at 37° C. for 6 hours. Thereafter, the test compound or solvent, and lipopolysaccharide (10 μg/ml) were added, and the reaction was allowed to proceed for 18 hours. After the completion of the reaction, the supernatant (blood plasma) was recovered via centrifugation at 4° C., and the amount of prostaglandin E2 in the plasma was quantified using a kit (514010, Cayman Chemical). Dimethyl sulfoxide (DMSO) was used as a solvent for the test compound. The amount of prostaglandin E2 produced via the addition of lipopolysaccharide was designated as 100%, and the concentration of the test compound that inhibits 50% of such reaction was represented by the IC50 value.
# [2] = molecular target: T2, COX-1 (Homo sapiens, UniProt P23219); experiment: Activity of inhibiting COX-1 in human blood (thromboxane B2 after ionomycin); assay type: cell-based; settings: thromboxane B2 production
# T2 construct: Human blood that had been sampled with the use of heparin (19 units/ml) was used; from tissue; host or cells: human whole blood (heparinised)
# Experimental: Human blood that had been sampled with the use of heparin (19 units/ml) was used. Blood was fractionated to reaction tubes in amounts of 500 μl, the test compound or solvent was added thereto, and the resultants were incubated at 37° C. for 60 minutes. Dimethyl sulfoxide (DMSO) was used as a solvent for the test compound. Thereafter, ionomycin (30 nM) was added, and the reaction was allowed to proceed for 30 minutes. After the completion of the reaction, the supernatant (blood plasma) was recovered via centrifugation at 4° C., and the amount of thromboxane B2 in the plasma was quantified using a kit (519031, Cayman Chemical). The amount of thromboxane B2 produced via the addition of ionomycin was designated as 100%, and the concentration of the test compound that inhibits 50% of such reaction was represented by the IC50 value.
# [3] = system: ddY mice; experiment: Acetic acid writhing test in mice (analgesic effects); assay type: in vivo; settings: Mus musculus
# Experimental: ddY mice were grown for at least 16 hours under fasting conditions while free water intake was allowed, and a solution of the test compound or a solvent was orally administered thereto (0.1 ml/10 g). As a solvent for a solution of the test compound, dimethyl sulfoxide (DMSO):Tween 80:27% hydroxypropyl-P-cyclodextrin (hereafter abbreviated to “HP-β-CD”) (1:1:8) or 27% HP-β-CD was used. A solution of 0.6% acetic acid (0.1 ml/10 g) was administered intraperitoneally 45 minutes after administration to induce a writhing reaction (i.e., a movement of stretching or arching the body). The number of the writhing reactions that had occurred for the period from 10 minutes after administration of the acetic acid solution to 10 minutes thereafter was counted, and the number of times was designated as an indicator of pain. The number of times of reactions in the group to which a solvent had been administered was designated as 100%, and the concentration of the test compound that had inhibited 50% of such reaction was designated as the ED50 value.
# The compound of Reference Example 78 is disclosed in the claims of JP Patent Publication (kohyo) No. 2006-517535 A, the compounds of Reference Examples 93 and 199 are disclosed in the claims of JP Patent No. 3003148, and the compound of Reference Example 103 is disclosed in the claims of JP Patent Publication (kohyo) No. 2006-514095 A. Thus, these compounds were compared with the compounds of the present invention having similar structures in terms of analgesic effects with oral administration (Table 4) or subcutaneous administration (Table 5). Dimethyl sulfoxide (DMSO):Tween 80:27% HP-β-CD (1:1:8) or 27% HP-β-CD was used as a solvent for the test compound.
# [4] = oral administration 45 minutes before 0.6% acetic acid i.p., 50% inhibition of writhing reactions, read-out: ED50 (mg/kg)[90% confidence limit]
# [5] = sc, Table 5, subcutaneous administration, read-out: ED50 (mg/kg) [90% confidence limit]
# T2 sequence (P23219 24-599): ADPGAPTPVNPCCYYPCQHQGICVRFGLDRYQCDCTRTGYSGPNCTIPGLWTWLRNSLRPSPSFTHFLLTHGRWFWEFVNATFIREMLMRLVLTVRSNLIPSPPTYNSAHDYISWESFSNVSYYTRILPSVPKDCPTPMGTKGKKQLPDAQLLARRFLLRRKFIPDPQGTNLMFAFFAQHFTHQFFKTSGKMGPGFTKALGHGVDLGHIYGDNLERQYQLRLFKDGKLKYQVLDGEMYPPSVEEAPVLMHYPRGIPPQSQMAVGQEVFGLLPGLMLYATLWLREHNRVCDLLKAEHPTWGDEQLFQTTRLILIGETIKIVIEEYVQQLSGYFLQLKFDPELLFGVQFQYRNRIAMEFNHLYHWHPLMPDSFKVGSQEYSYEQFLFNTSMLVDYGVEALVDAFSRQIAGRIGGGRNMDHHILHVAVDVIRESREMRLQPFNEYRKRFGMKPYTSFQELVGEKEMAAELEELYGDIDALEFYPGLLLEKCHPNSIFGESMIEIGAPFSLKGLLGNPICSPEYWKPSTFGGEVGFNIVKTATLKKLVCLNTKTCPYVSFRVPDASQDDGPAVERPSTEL
SMILES,IC50 [1],IC50 [2],"ED50 [3, 4]","ED50 [3, 5]","ED50 ([3]; Table 4, oral administration, comparison with similar known compound, read-out: ED50 (mg/kg) [90% confidence limit])"
"COc1ccc(-c2cc(C3CC4CCC(C3)N4C(=O)N(C)O)nn2-c2ccc(OC)cc2)cc1 (stereo not shown) [Example 68, 3-(1,5-Bis(4-methoxyphenyl)-1H-pyrazol-3-yl)-8-(N-hydroxy-N-methylcarbamoyl)-8-azabicyclo[3.2.1]octane]",> 10 µM,< 0.1 µM,,,
"COc1ccc(-c2nc(C3(C#N)CCN(C(=O)N(C)O)CC3)sc2-c2ccc(OC)cc2)cc1 [Example 56, 4-(4,5-Bis(4-methoxyphenyl)thiazol-2-yl)-4-cyano-1-(N-hydroxy-N-methylcarbamoyl)piperidine]",> 10 µM,< 0.1 µM,4.61 mg/kg,,
"COc1ccc(-n2nc(C3CCN(C(=O)N(C)O)CC3)cc2-c2ccc(C)cc2)cc1 [Example 69, 4-(1-(4-Methoxyphenyl)-5-(4-tolyl)-1H-pyrazol-3-yl)-1-(N-hydroxy-N-methylcarbamoyl)piperidine]",> 10 µM,< 0.1 µM,3.19 mg/kg,,
"COc1ccc(-c2nc(C3CCNCC3)sc2-c2ccc(OC)cc2)cc1 [Reference Example 93, 4-(4,5-Bis(4-methoxyphenyl)thiazol-2-yl)piperidine, reference compound]",,,,> 100 mg/kg,
"COc1ccc(-c2cc(C3CCN(C(=O)N(C)O)CC3)[nH]c2-c2ccc(OC)cc2)cc1 [Example 34, 4-(4,5-Bis(4-methoxyphenyl)-1H-pyrrol-2-yl)-1-(N-hydroxy-N-methylcarbamoyl)piperidine]",> 10 µM,< 0.1 µM,,,
"COc1ccc(-c2nc(C3(C)CCN(C(=O)N(C)O)CC3)sc2-c2ccc(OC)cc2)cc1 [Example 55, 4-(4,5-Bis(4-methoxyphenyl)thiazol-2-yl)-1-(N-hydroxy-N-methylcarbamoyl)-4-methylpiperidine]",> 10 µM,< 0.1 µM,,,
"CNC(=O)N1CCC(c2nc(-c3ccc(OC)cc3)c(-c3ccc(OC)cc3)s2)CC1 [Reference Example1 199, reference compound]",,,,34.4 mg/kg,
"COc1ccc(-c2nc(N3CCN(C(=O)N(C)O)CC3)sc2-c2ccc(OC)cc2)cc1 [Example 57, 4-(4,5-Bis(4-methoxyphenyl)thiazol-2-yl)-1-(N-hydroxy-N-methylcarbamoyl)piperazine]",,,9.79 mg/kg,,
"COc1ccc(-c2nc(C3CCNCC3)oc2-c2ccc(OC)cc2)cc1 [Reference Example 78, 4-(4,5-Bis(4-methoxyphenyl)oxazol-2-yl)piperidine, reference compound]",,,,,> 100 mg/kg
"COc1ccc(-n2nc(C3CCN(C(=O)N(C)O)CC3)cc2-c2cccnc2OC)cc1 [Example 67, 4-(1-(4-Methoxyphenyl)-5-(2-methoxypyridin-3-yl)-1H-pyrazol-3-yl)-1-(N-hydroxy-N-methylcarbamoyl)piperidine]",,,2.51 mg/kg,,
"COc1ccc(-c2cc(C3CCNCC3)nn2-c2ccc(OC)cc2)cc1 [Reference Example 103, 4-(1,5-Bis(4-methoxyphenyl)-1H-pyrazol-3-yl)piperidine, reference compound]",,,,> 100 mg/kg,
"CCCC1(c2nc(-c3ccc(OC)cc3)c(-c3ccc(OC)cc3)o2)CCN(C(=O)N(C)O)CC1 [Example 74, 4-(1,5-Bis(4-methoxyphenyl)oxazol-2-yl)-4-propyl-1-(N-hydroxy-N-methylcarbamoyl)piperidine]",> 10 µM,< 0.1 µM,,,
"CN(O)C(=O)N1CCC(c2nc(-c3ccc(F)cc3)c(-c3ccccc3)o2)CC1 [Example 13, 4-(4-(4-Fluorophenyl)-5-phenyloxazol-2-yl)-1-(N-hydroxy-N-methylcarbamoyl)piperidine]",,,2.62 mg/kg,,
"COc1ccc(-c2nc(C3(c4ccccc4)CCN(C(=O)N(C)O)CC3)oc2-c2ccc(OC)cc2)cc1 [Example 48, 4-(4,5-Bis(4-methoxyphenyl)oxazol-2-yl)-(N-hydroxy-N-methylcarbamoyl)-4-phenylpiperidine]",> 10 µM,< 0.1 µM,,,

# Further lines, with some results ahead:
IC50 [1],IC50 [2],SMILES,"ED50 [3, 4]","ED50 [3, 5]","ED50 ([3]; Table 4, oral administration, comparison with similar known compound, read-out: ED50 (mg/kg) [90% confidence limit])"
> 10 µM,< 0.1 µM,COc1ccc(-c2nc(C3CCN(C(=O)N(C)O)CC3)oc2-c2ccc(OCCO)cc2)cc1 [Example 77],,,
> 10 µM,< 0.1 µM,"COc1ccc(-c2nc(C3CCN(C(=O)N(C)OC)CC3)oc2-c2ccc(OC)cc2)cc1 [Example 24, 4-(4,5-Bis(4-methoxyphenyl)oxazol-2-yl)-1-(N-methoxy-N-methylcarbamoyl)piperidine]",,,
> 10 µM,< 0.1 µM,"COc1ccc(-c2nc(C3(C)CCN(C(=O)N(C)O)CC3)oc2-c2ccc(OC)cc2)cc1 [Example 42, 4-(4,5-Bis(4-methoxyphenyl)oxazol-2-yl)-1-(N-hydroxy-N-methylcarbamoyl)-4-methylpiperidine]",,,
> 10 µM,< 0.1 µM,"COc1ccc(-c2cc(C3CCN(C(=O)N(C)O)CC3)sc2-c2ccc(OC)cc2)cc1 [Example 39, 4-(4,5-Bis(4-methoxyphenyl)thiophen-2-yl)-1-(N-hydroxy-N-methylcarbamoyl)piperidine]",,,
> 10 µM,< 0.1 µM,"CCN(O)C(=O)N1CCC(c2nc(-c3ccc(OC)cc3)c(-c3ccc(OC)cc3)o2)CC1 [Example 19, 4-(4,5-Bis(4-methoxyphenyl)oxazol-2-yl)-1-(N-hydroxy-N-ethylcarbamoyl)piperidine]",,,
> 10 µM,< 0.1 µM,"COc1ccc(-c2nc(C3CCN(C(=O)N(C)OC)CC3)sc2-c2ccc(OC)cc2)cc1 [Example 61, 4-(4,5-Bis(4-methoxyphenyl)thiazol-2-yl)-1-(N-methoxy-N-methylcarbamoyl)piperidine]",,,
> 10 µM,< 0.1 µM,"COc1ccc(-c2nc(C3CCN(C(=O)N(O)C4CCCCC4)CC3)oc2-c2ccc(OC)cc2)cc1 [Example 16, 4-(4,5-Bis(4-methoxyphenyl)oxazol-2-yl)-1-(N-cyclohexyl-N-hydroxycarbamoyl)piperidine]",,,
> 10 µM,< 0.1 µM,"COc1ccc(-c2nc(C3CCN(C(=O)N(O)C(C)C)CC3)sc2-c2ccc(OC)cc2)cc1 [Example 60, 4-(4,5-Bis(4-methoxyphenyl)thiazol-2-yl)-1-(N-hydroxy-N-isopropylcarbamoyl)piperidine]",,,
> 10 µM,< 0.1 µM,"COc1ccc(-c2nc(C3CCN(C(=O)N(O)C(C)C)CC3)oc2-c2ccc(OC)cc2)cc1 [Example 15, 4-(4,5-Bis(4-methoxyphenyl)oxazol-2-yl)-1-(N-isopropyl-N-hydroxycarbamoyl)piperidine]",,,
> 10 µM,< 0.1 µM,"COc1ccc(-c2cc(C3CCN(C(=O)N(C)O)CC3)oc2-c2ccc(OC)cc2)cc1 [Example 38, 4-(4,5-bis(4-methoxyphenyl)furan-2-yl)-1-(N-hydroxy-N-methylcarbamoyl)piperidine]",,,
